In the supplement of paper PMC10627819:

Experiments:
S. pneumoniae D39V [1] = assay: fitness (endpoint OD595 vs no drug) (fraction); higher = more growth
Summary of the method: (§1)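 Fitness compares growth at the stationary-phase transition with the robust mean of no-drug control wells, as a ratio of optical densities. The ratio is capped at 1. Wells of 384-well plates held 30 µl, or 55 µl for S. pneumoniae, inoculated at OD595 0.01. Readings at OD595 every 30 min for 14 h at 37 °C were corrected against the first reading.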

B. subtilis 168 [2] = assay: as above
Summary of the method: as §1

S. pneumoniae D39V [3] = assay: Bliss interaction score (quartile over a dose matrix) (fitness difference); higher = more antagonism (negative = synergy)
Summary of the method: (§2)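 Fitness here means normalised growth, inferred for single drugs from the combination data. Growth was OD595 at entry into stationary phase, divided by the plate's robust no-drug mean and capped at 1. The Bliss score is observed minus expected fitness, with the expectation being the product, and its quartiles span technical, biological and donor/recipient replicates.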

S. aureus DSM 20231 = assay: as above
Summary of the method: as §2

B. subtilis 168 [4] = assay: as above
Summary of the method: as §2

S. aureus Newman = assay: as above
Summary of the method: as §2
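Throughout, for Bliss interaction score (quartile over a dose matrix): first quartile when negative (synergy) and third quartile when positive (antagonism).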
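Throughout, for fitness (endpoint OD595 vs no drug): OD595 on entry to stationary phase over no-drug wells; at most 1.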

CN(C)C(=O)C(CCN1CCC(O)(c2ccc(Cl)cc2)CC1)(c1ccccc1)c1ccccc1 [Loperamide] + Cc1onc(-c2ccccc2)c1C(=O)N[C@@H]1C(=O)N2[C@@H]1SC(C)(C)[C@@H]2C(=O)O [Oxacillin]
Details	fitness
B. subtilis 168 [2], first compound 25 µg/mL, partner 0.002 µg/mL	0.749
B. subtilis 168 [2], first compound 25 µg/mL, partner 0.004 µg/mL	0.697
B. subtilis 168 [2], first compound 50 µg/mL, partner 0.002 µg/mL	0.0423
B. subtilis 168 [2], first compound 50 µg/mL, partner 0.004 µg/mL	0.0371
B. subtilis 168 [2], first compound 50 µg/mL, partner 0.008 µg/mL	0.0519
B. subtilis 168 [2], first compound 100 µg/mL, partner 0.002 µg/mL	0.0346
B. subtilis 168 [2], first compound 100 µg/mL, partner 0.004 µg/mL	0.0357
B. subtilis 168 [2], first compound 100 µg/mL, partner 0.008 µg/mL	0.0283
S. pneumoniae D39V [1], first compound 17.14 µg/mL, partner 0.01 µg/mL	0.976
S. pneumoniae D39V [1], first compound 17.14 µg/mL, partner 0.02 µg/mL	0.878
S. pneumoniae D39V [1], first compound 20 µg/mL, partner 0.01 µg/mL	0.99
S. pneumoniae D39V [1], first compound 20 µg/mL, partner 0.02 µg/mL	0.869
S. pneumoniae D39V [1], first compound 20 µg/mL, partner 0.04 µg/mL	0.156
S. pneumoniae D39V [1], first compound 34.28 µg/mL, partner 0.01 µg/mL	0.908
S. pneumoniae D39V [1], first compound 40 µg/mL, partner 0.01 µg/mL	0.859
S. pneumoniae D39V [1], first compound 40 µg/mL, partner 0.04 µg/mL	0.109
S. pneumoniae D39V [1], first compound 80 µg/mL, partner 0.04 µg/mL	0.0757

fitness, one replicate
Details	partner 0.01 µg/mL	partner 0.02 µg/mL	partner 0.04 µg/mL	partner 0.075 µg/mL	partner 0.15 µg/mL	partner 0.3 µg/mL
B. subtilis 168 [2], first compound 25 µg/mL	–	–	–	0.0507	0.0511	0.0488
B. subtilis 168 [2], first compound 50 µg/mL	–	–	–	0.0519	0.0509	0.0494
B. subtilis 168 [2], first compound 100 µg/mL	–	–	–	0.0598	0.0504	0.0472
S. pneumoniae D39V [1], first compound 68.57 µg/mL	0.979	0.901	0.618	–	–	–

Details	Bliss interaction score
B. subtilis 168 [4]	-0.0924
S. aureus DSM 20231	-0.0615
S. aureus Newman	0.077
S. pneumoniae D39V [3]	-0.33

CN(C)C(=O)C(CCN1CCC(O)(c2ccc(Cl)cc2)CC1)(c1ccccc1)c1ccccc1 [Loperamide] + CCN(CC)CCOC(=O)c1ccc(N)cc1 [Procaine]
fitness
Details	partner 85.5 µg/mL	partner 171 µg/mL	partner 342 µg/mL
B. subtilis 168 [2], first compound 25 µg/mL	0.801	0.84	0.763
B. subtilis 168 [2], first compound 50 µg/mL	0.0504	0.0536	0.051
B. subtilis 168 [2], first compound 100 µg/mL	0.0164	0.016	0.052
S. pneumoniae D39V [1], first compound 17.14 µg/mL	0.941	0.905	0.903
S. pneumoniae D39V [1], first compound 34.28 µg/mL	0.97	0.853	0.923

fitness, S. pneumoniae D39V [1], one replicate
Details	first compound 20 µg/mL	first compound 40 µg/mL	first compound 68.57 µg/mL	first compound 80 µg/mL
partner 85.5 µg/mL	≥ 1	≥ 1	0.919	0.999
partner 171 µg/mL	≥ 1	≥ 1	0.874	≥ 1
partner 342 µg/mL	≥ 1	0.986	0.88	≥ 1

Details	Bliss interaction score
B. subtilis 168 [4]	-0.0865
S. aureus DSM 20231	0.127
S. aureus Newman	0.0372
S. pneumoniae D39V [3]	-0.0548
